Data published in patent US7226949B2, “Compounds of use in the treatment of epilepsy, seizure, and electroconvulsive disorders” (University of Kentucky, priority 2002, dated 2007).
Where two headings read alike, the source gives them in different places.

How the values were obtained:
[1] = test system: focal seizures in hippocampal kindled rats; assay: Hippocampal kindling model; assay type: in vivo, Sprague-Dawley rats; details: hippocampal kindling model; not as effective as 4,4′-thiodianiline
Excerpt: Hippocampal Kindling Model
The hippocampal kindling model is an experimental seizure model used to simulate focal seizures. This model evaluates the capacity of a compound to affect both the expression and acquisition of focal seizures. In addition, kindled seizures provide a methodology for studying complex brain networks that may contribute to the spread and generalizations of seizures from a focus. The hippocampal kindling model has the advantage of being one of the only kindling models that can evaluate the temporal effects of an agent in a single animal. For this assessment, bipolar electrodes are surgically implanted in the ventral hippocampus of adult male Sprague-Dawley rats (275-300 g) under ketamine-xylazine anesthesia. Following a one-week recovery period, stage five behavioral seizures are induced by stimulating the rat 12 times per day with 50 Hz, 10 s train of 1 ms biphasic 200 μA pulses delivered every 30 min for six hours on alternating days. After five stimulus days, the animal has had 60 stimulations. A drug free control period with supramaximal stimulations is used to verify the stability of a stage five generalized seizure before the anticonvulsant activity of a drug is measured.
This screen is used to measure the capacity of the drug to prevent the expression of focal seizures. […] The animal is exposed to an initial stimulation of 20 μA; the stimulation is increased in 10 μA increments every one-two minutes until an afterdischarge is recorded. After the stability of the stage five seizure is established, the drug candidate is administered to the rats via intraperitoneal injection 15 minutes after the last control stimulation. Starting with the first dose, the anticonvulsant activity of the test agent is measured every thirty minutes for four hours. Following each stimulation, Racine seizure scores and afterdischarge durations are compared to control values to quantify the anti-convulsant activity of the agent. The Racine seizure scores vary from stage 1 to 5. The stages are characterized according to the following criteria: Stage 1—mouth and facial clonus, Stage 2—stage 1 and head nodding, Stage 3—stage 2 and forelimb clonus, Stage 4—stage 3 and rearing, Stage 5—stage 4 and repeated rearing and falling. Since a single animal is used, each rat serves as its own control.
4,4′-Thiodianiline was used in the rat hippocampal kindled rats to screen to measure its anticonvulsant potential. Doses of 12.5, 25, 50 and 100 mg/kg were evaluated at a minimum of seven time points (n=7 for each dose and each time point). […] After oral administration of the test compound stimulation, the Racine seizure scores and afterdischarge durations were measured and are shown below. The Racine seizure scores dropped from between a stage 4 and stage 5 seizure for control measurements to between a stage 1 and stage 2 seizure after treatment with 4,4′-thiodianiline.

rats = assay: Minimal neurotoxicity in rats, positional sense and gait and stance tests; assay type: in vivo; details: for toxicity: 250 mg/kg
Excerpt: If the rat experiences neurological toxicity, it will not be able to quickly lift its leg quickly back to a normal position.
In the gait and stance test, neurotoxicity is indicated by a circular or zigzag gait after administration of the test compound. In addition, ataxia, abnormal spread of the legs, abnormal posture, tremor hyperactivity, lack of exploratory behavior, somnolence, stupor, or catalepsy can indicate neurotoxicity.

MES-induced seizure [2] = assay: Maximal Electroshock Seizure (MES) test in mice, intraperitoneal administration; assay type: in vivo
Excerpt: (§1) The Maximal Electroshock Seizure (MES) or Maximal Seizure Pattern Test
(§2) The MES is an experimental model for generalized tonic-clonic seizures that identifies compounds that prevent seizure spread. The MES model is highly reproducible and has a consistent endpoint. An advantage of this model is that the behavioral and electrographic seizures are consistent with those observed in humans.
(§3) In the MES test, the animal receives an electrical stimulus, 0.2 seconds in duration, via corneal electrodes primed with an electrolyte solution containing an anesthetic agent. The 0.2 second stimulation is generated with 150 mA in rats and 50 mA in mice at 60 Hz. […] In rats, the compound is administered orally, while mice receive the agent via intraperitoneal injection. The test endpoint, electrogenic seizure, is manifested as hindlimb tonic extension.

6 Hz seizures = assay: 6 Hz kindling model; assay type: in vivo, mice
Description: The 6 Hz kindling model is another experimental seizure model that effectively detects compounds with anti-seizure activity. This screen is used to evaluate the ability of a compound to prevent the acquisition of focal seizures; in particular, the capacity of a compound to prevent the development of seizures induced by a low-frequency (6 Hz), long duration (three seconds) stimulus in electrode […] is evaluated. Several of the most promising compounds were evaluated in this screen to further characterize their anti-seizure activity.
In the 6 Hz kindling test, mice are implanted with corneal electrodes. The test compound is administered (i.p.) to the animal at 0.25, 0.5, 1, 2, or 4 hours prior seizure induction. The seizure is initiated by delivering a current (32 mA at 6 Hz for three seconds) to the animal through the corneal electrodes. The resulting psychomotor seizure is usually characterized by a minimal clonic phase followed by stereotyped, automatistic behaviors. This response is analogous to the aura of human patients with partial seizures.

mice = assay: Minimal neurotoxicity in mice, rotorod test; details: for toxicity: 100 mg/kg
Description: In mice, the test compound is administered at doses of 30, and 100 mg/kg prior to evaluation in the toxicity screens. The mice are tested at 0.5 hours and 4 hours after intraperitoneal administration of the test compound.
Toxicity in mice weighing between 18 and 25.5 g is assessed using the standardized rotorod test [9]. For each compound tested, a minimum of 18 animals are evaluated for neurotoxicity. Control mice can maintain their equilibrium for an extended period of time when they are placed on a 6-rpm rotation rod. Neurologically impaired animals cannot maintain equilibrium for one minute in each of three successive trials.

MES-induced seizure [3] = assay: Maximal Electroshock Seizure (MES) test in rats, oral administration; assay type: in vivo; details: for Percentage of rats in which the test compound prevented MES-induced seizure: 30 mg/kg oral; for Time to Peak Effect: MES test; for ED50: read-out: ED50 required to inhibit MES-induced seizure
Excerpt: as §1, §2, §3
A full dose-response curve was also generated in rats to determine the ED50 value (n=8 at each time point). […] The ED50 of 4,4′-thiodianiline was evaluated in both rats and mice.

[4] = 30 mg/kg i.p., 0.5 h after administration
[5] = 30 mg/kg i.p., 4.0 h after administration
[6] = 100 mg/kg i.p., 0.5 h after administration
[7] = 100 mg/kg i.p., 4.0 h after administration
[8] = 300 mg/kg i.p., 0.5 h after administration
[9] = 300 mg/kg i.p., 4.0 h after administration
[10] = 30 mg/kg i.p., 0.25 h after administration
[11] = 30 mg/kg i.p., 1.0 h after administration
[12] = 100 mg/kg i.p., 0.25 h after administration
[13] = 100 mg/kg i.p., 1.0 h after administration
[14] = 100 mg/kg i.p., 2.0 h after administration
[15] = rat, oral administration, at the time of peak effect, n=8

Nc1ccc(NC(=O)c2ccc(N)cc2)cc1 [4,4′-Diaminobenzanalide]
expression of fully kindled seizures [1]: had the capacity to block the expression of fully kindled seizures

Nc1ccc(C(=O)c2ccc(N)cc2)cc1 [4,4′-diaminobenzophenone]
acute neurotoxic effects (rats; 0.25 to 24 hours after oral administration, doses as high as 500 mg/kg): None of the rats tested at any timepoints
Percentage of mice in which the test compound prevented MES-induced seizure (MES-induced seizure [2]; [4]): 0%
Percentage of mice in which the test compound prevented MES-induced seizure (MES-induced seizure [2]; [5]): 0%
Percentage of mice in which the test compound prevented MES-induced seizure (MES-induced seizure [2]; [6]): 100%
Percentage of mice in which the test compound prevented MES-induced seizure (MES-induced seizure [2]; [7]): 100%
Percentage of mice in which the test compound prevented MES-induced seizure (MES-induced seizure [2]; [8]): 100%
Percentage of mice in which the test compound prevented MES-induced seizure (MES-induced seizure [2]; [9]): 100%
Percentage of mice in which the test compound prevented seizure in the 6 Hz test (6 Hz seizures; [10]): 0%
Percentage of mice in which the test compound prevented seizure in the 6 Hz test (6 Hz seizures; [4]): 0%
Percentage of mice in which the test compound prevented seizure in the 6 Hz test (6 Hz seizures; [11]): 0%
Percentage of mice in which the test compound prevented seizure in the 6 Hz test (6 Hz seizures; [12]): 100%
Percentage of mice in which the test compound prevented seizure in the 6 Hz test (6 Hz seizures; [6]): 100%
Percentage of mice in which the test compound prevented seizure in the 6 Hz test (6 Hz seizures; [13]): 100%
Percentage of mice in which the test compound prevented seizure in the 6 Hz test (6 Hz seizures; [14]): 0%
Percentage of mice in which the test compound prevented seizure in the 6 Hz test (6 Hz seizures; [7]): 0%
neurotoxicity (mice; doses below 100 mg/kg): showed no neurotoxicity
Percentage of rats in which the test compound prevented MES-induced seizure (MES-induced seizure [3]; 0.25 h after administration): 50%
Percentage of rats in which the test compound prevented MES-induced seizure (MES-induced seizure [3]; 0.5 h after administration): 100%
Percentage of rats in which the test compound prevented MES-induced seizure (MES-induced seizure [3]; 1.0 h after administration): 75%
Percentage of rats in which the test compound prevented MES-induced seizure (MES-induced seizure [3]; 2.0 h after administration): 100%
Percentage of rats in which the test compound prevented MES-induced seizure (MES-induced seizure [3]; 4.0 h after administration): 75%
Time to Peak Effect (MES-induced seizure [3]; rat, oral administration): 1 h
ED50 (MES-induced seizure [3]; [15]): 7.15 mg/kg

Nc1ccc(Cc2ccc(N)cc2)cc1 [4,4′-methylenedianiline]
toxicity (rats): no significant toxicity
Percentage of mice in which the test compound prevented MES-induced seizure (MES-induced seizure [2]; [4]): 0%
Percentage of mice in which the test compound prevented MES-induced seizure (MES-induced seizure [2]; [5]): 0%
Percentage of mice in which the test compound prevented MES-induced seizure (MES-induced seizure [2]; [6]): 100%
Percentage of mice in which the test compound prevented MES-induced seizure (MES-induced seizure [2]; [7]): 0%
Percentage of mice in which the test compound prevented MES-induced seizure (MES-induced seizure [2]; [8]): 100%
Percentage of mice in which the test compound prevented MES-induced seizure (MES-induced seizure [2]; [9]): 100%
Percentage of mice in which the test compound prevented seizure in the 6 Hz test (6 Hz seizures; [10]): 0%
Percentage of mice in which the test compound prevented seizure in the 6 Hz test (6 Hz seizures; [4]): 0%
Percentage of mice in which the test compound prevented seizure in the 6 Hz test (6 Hz seizures; [11]): 0%
Percentage of mice in which the test compound prevented seizure in the 6 Hz test (6 Hz seizures; [12]): 100%
Percentage of mice in which the test compound prevented seizure in the 6 Hz test (6 Hz seizures; [6]): 100%
Percentage of mice in which the test compound prevented seizure in the 6 Hz test (6 Hz seizures; [13]): 100%
Percentage of mice in which the test compound prevented seizure in the 6 Hz test (6 Hz seizures; [14]): 0%
Percentage of mice in which the test compound prevented seizure in the 6 Hz test (6 Hz seizures; [7]): 0%
toxicity (mice): no significant toxicity
Percentage of rats in which the test compound prevented MES-induced seizure (MES-induced seizure [3]; 0.25 h after administration): 100%
Percentage of rats in which the test compound prevented MES-induced seizure (MES-induced seizure [3]; 0.5 h after administration): 75%
Percentage of rats in which the test compound prevented MES-induced seizure (MES-induced seizure [3]; 1.0 h after administration): 92%
Percentage of rats in which the test compound prevented MES-induced seizure (MES-induced seizure [3]; 2.0 h after administration): 100%
Percentage of rats in which the test compound prevented MES-induced seizure (MES-induced seizure [3]; 4.0 h after administration): 50%
ED50 (MES-induced seizure [3]; Rattus norvegicus, po): 10.6 ± 5.88 mg/kg
Time to Peak Effect (MES-induced seizure [3]; rat, oral administration): 1 h

Nc1ccc(Nc2cccc(N)c2)cc1 [(3-aminophenyl)-(4-aminophenyl) amine]
toxicity (rats): no significant toxicity
Percentage of mice in which the test compound prevented MES-induced seizure (MES-induced seizure [2]; [4]): 0%
Percentage of mice in which the test compound prevented MES-induced seizure (MES-induced seizure [2]; [5]): 0%
Percentage of mice in which the test compound prevented MES-induced seizure (MES-induced seizure [2]; [6]): 100%
Percentage of mice in which the test compound prevented MES-induced seizure (MES-induced seizure [2]; [7]): 100%
Percentage of mice in which the test compound prevented MES-induced seizure (MES-induced seizure [2]; [8]): 100%
Percentage of mice in which the test compound prevented MES-induced seizure (MES-induced seizure [2]; [9]): 100%
toxicity (mice): no significant toxicity
Percentage of rats in which the test compound prevented MES-induced seizure (MES-induced seizure [3]; 0.25 h after administration): 0%
Percentage of rats in which the test compound prevented MES-induced seizure (MES-induced seizure [3]; 0.5 h after administration): 50%
Percentage of rats in which the test compound prevented MES-induced seizure (MES-induced seizure [3]; 1.0 h after administration): 75%
Percentage of rats in which the test compound prevented MES-induced seizure (MES-induced seizure [3]; 2.0 h after administration): 50%
Percentage of rats in which the test compound prevented MES-induced seizure (MES-induced seizure [3]; 4.0 h after administration): 50%
Time to Peak Effect (MES-induced seizure [3]; rat, oral administration): 2 h
ED50 (MES-induced seizure [3]; [15]): 31.7 ± 24.4 mg/kg
